Source: PubChem BioAssay (NCI)
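1) Cells in 96-well plates. 2) Compound, 48 h, 5 concentrations. 3) Linear interpolation between surrounding doses. 4) Unreached endpoint = highest concentration. TGI marks complete inhibition of growth.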

Columns and labels:
Test in all cases: DTP human tumour cell line panel, 48 h
[1] = tested on: 786-0 renal
[2] = tested on: A498 renal
[3] = tested on: A549 NSCLC
[4] = tested on: ACHN renal
[5] = tested on: CAKI-1 renal
[6] = tested on: CCRF-CEM leukemia
[7] = tested on: COLO 205 colon
[8] = tested on: DMS 114 small cell lung
[9] = tested on: DMS 273 small cell lung
[10] = tested on: EKVX NSCLC
[11] = tested on: HCC-2998 colon
[12] = tested on: HCT-116 colon
[13] = tested on: HCT-15 colon
[14] = tested on: HL-60(TB) leukemia
[15] = tested on: HOP-18 NSCLC
[16] = tested on: HOP-62 NSCLC
[17] = tested on: HOP-92 NSCLC
[18] = tested on: HT29 colon
[19] = tested on: IGROV1 ovarian
[20] = tested on: K-562 leukemia
[21] = tested on: KM12 colon
[22] = tested on: KM20L2 colon
[23] = tested on: LOX IMVI melanoma
[24] = tested on: LXFL 529 NSCLC
[25] = tested on: M14 melanoma
[26] = tested on: M19-MEL melanoma
[27] = tested on: MALME-3M melanoma
[28] = tested on: MOLT-4 leukemia
[29] = tested on: NCI-H226 lung
[30] = tested on: NCI-H23 lung
[31] = tested on: NCI-H460 lung
[32] = tested on: NCI-H522 lung
[33] = tested on: OVCAR-3 ovarian
[34] = tested on: OVCAR-4 ovarian
[35] = tested on: OVCAR-5 ovarian
[36] = tested on: OVCAR-8 ovarian
[37] = tested on: RPMI-8226 leukemia
[38] = tested on: RXF 393 renal
[39] = tested on: RXF-631 renal
[40] = tested on: SF-268 CNS
[41] = tested on: SF-295 CNS
[42] = tested on: SF-539 CNS
[43] = tested on: SK-MEL-2 melanoma
[44] = tested on: SK-MEL-28 melanoma
[45] = tested on: SK-MEL-5 melanoma
[46] = tested on: SK-OV-3 ovarian
[47] = tested on: SN12C renal
[48] = tested on: SNB-19 CNS
[49] = tested on: SNB-75 CNS
[50] = tested on: SNB-78 CNS
[51] = tested on: SR leukemia
[52] = tested on: SW-620 colon
[53] = tested on: TK-10 renal
[54] = tested on: U251 CNS
[55] = tested on: UACC-257 melanoma
[56] = tested on: UACC-62 melanoma
[57] = tested on: UO-31 renal

Measured: TGI

CCN(CC)CCCCC1CCN(CC(=O)N2c3ccccc3NC(=O)CC2C)CC1 (configuration not stated)
47.6 µM: [23]
> 100 µM: all other assays above
